Results on 2 molecules are retold here after ChEMBL document CHEMBL1201862, “PubChem BioAssay data set” (2004).

Active and inactive are the calls of the source. Where only a bound is given, the exact number is not on record here.

One may read the Ki as a dissociation constant, usually derived from enzyme kinetics or from competition with a known ligand. For orientation: AC50 means the concentration at which the activity in the assay is half-maximal.

The target in experiment [1] is Serine/threonine-protein kinase Chk1 (Homo sapiens, UniProt O14757). The experiment is classed as functional.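 Note: measured as one member of a kinome-wide kinase profiling panel.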
The nature of experiment [2]: viability loss in CEM21 cells – cell-based, CellTiter-Glo luminescence, cherry-picked, cytotoxicity control for viral fusion inhibitor project, dose response (AID 652042).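 Note: potency for signal decrease meaning cytotoxicity.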 The experiment is classed as functional. (In ATP-based viability assays light output follows the ATP content of the culture.)

Chain of Serine/threonine-protein kinase Chk1 (O14757 whole entry, the tested form may be a part): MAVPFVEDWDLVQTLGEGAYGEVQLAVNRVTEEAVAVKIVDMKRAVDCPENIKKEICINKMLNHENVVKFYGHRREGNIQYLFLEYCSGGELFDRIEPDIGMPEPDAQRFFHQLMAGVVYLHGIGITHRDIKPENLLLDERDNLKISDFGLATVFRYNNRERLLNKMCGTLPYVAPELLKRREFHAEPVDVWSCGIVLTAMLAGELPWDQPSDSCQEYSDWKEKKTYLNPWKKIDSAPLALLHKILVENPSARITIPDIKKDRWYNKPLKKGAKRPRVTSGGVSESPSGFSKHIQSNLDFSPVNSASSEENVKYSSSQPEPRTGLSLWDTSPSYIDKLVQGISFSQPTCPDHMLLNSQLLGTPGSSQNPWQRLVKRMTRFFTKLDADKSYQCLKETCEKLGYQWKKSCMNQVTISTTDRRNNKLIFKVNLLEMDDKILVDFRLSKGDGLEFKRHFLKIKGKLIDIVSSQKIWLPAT

With `O=C(Nc1cccc(C(F)(F)F)n1)Nc1ccnc2cc(OC(F)F)ccc12`, in experiment [1], the Ki is > 3.16 µM (inactive).
As to `Cc1cc(C)c(S(=O)(=O)/N=C2\C=C(Nc3ccc(C(=O)O)cc3)C(=O)c3ccccc32)c(C)c1`, the AC50 in experiment [2] is 9.3 µM (active).
